Measured values: patent US20260042771A1, “HETEROCYCLIC COMPOUND FOR INDUCING DEGRADATION OF G12V MUTANT KRAS PROTEIN” (Astellas Pharma Inc., priority 2022, published 2026)

Key:
[1] = biological target: T1, RAS G12V (Homo sapiens, UniProt P01116, G12V); test: Test Example 1: RAS G12V degradation activity by Cell ELISA in PA-TU-8902; type: cell-based; conditions: for DC50: 50% degradation concentration of RAS G12V, PA-TU-8902 cells, 24 hours, Cell ELISA, corrected with β-actin; for Dmax: PaTu 8902, degradation rate at the most active concentration, DMSO = 0%, Example No. 7 at 3 μM = 100%, PA-TU-8902, 24 hours
T1 construct: host or cells: PA-TU-8902 human pancreatic cancer cells
Protocol: Test Example 1: Evaluation of RAS G12V Degradation Activity on Human KRAS G12V Mutant-Positive Pancreatic Cancer Line PA-TU-8902
The RAS G12V degradation activity of test compounds was evaluated by measuring the expression levels of RAS G12V by Cell ELISA.
PA-TU-8902 cells (DSMZ, ACC 179) were seeded at 36 μL per well on 384-well plates (from Greiner bio-one) to give 1.5×10^4 cells per well. As for the cell culture conditions, DMEM medium (from Sigma-Aldrich) containing 10% fetal bovine serum (from Cytiva) was used in the presence of 5% CO2 at 37° C.
The next day, the test compounds (10 points having final concentrations in the range of 3 μM to 0.1 nM), the compound of Example No. 7 having a final concentration of 3 μM as a positive control and dimethyl sulfoxide (DMSO), which was the solvent for the test compounds, as a negative control were diluted 100-fold with a fresh medium and were added at 4 μL per well. The cells were cultured for 24 hours.
The next day, the culture supernatant was removed, and 4% paraformaldehyde phosphate buffer (from FUJIFILM Wako Pure Chemical Corporation) was added at 20 μL per well. The plates were allowed to stand for 30 minutes at room temperature to thus immobilize the cells. Then, the supernatant was removed, and 0.1% Triton X-100 (from Amersham Biosciences)-containing Phosphate buffered saline (PBS) was added at 20 μL per well. After allowing to stand at room temperature for 10 minutes, the supernatant was removed. PBS was added at 25 μL per well, and the supernatant was removed to thus wash each well. The washing was performed twice in total. Subsequent washing operations were performed in the same manner. Next, the supernatant was removed, and 0.5% sodium dodecyl sulfate (SDS; from ThermoFisher Scientific)-containing PBS was added at 20 μL per well. After allowing to stand at room temperature for 10 minutes, the supernatant was removed by centrifugation of the plates. After washing with PBS, the supernatant was removed by centrifugation, and blocking solution (PVDF Blocking Reagent for Can Get Signal [from TOYOBO Co., Ltd.]) was added at 20 μL per well. After allowing to stand for 30 minutes at room temperature, the supernatant was removed by centrifugation and a solution obtained by diluting, as primary antibodies, anti-Ras (G12V Mutant Specific) antibody (Ras (G12V Mutant Specific) (D2H12) Rabbit mAb; from Cell Signaling Technology; 500-fold diluted) and […] (Anti-beta Actin antibody; from Abcam; 5,000-fold diluted) with Can Get Signal Solution 2 (from TOYOBO Co., Ltd.) was added at 15 μL per well. The plates were allowed to stand overnight at 4° C.
The next day, the supernatant was removed by centrifugation and washed with PBS. The supernatant was removed by centrifugation, a solution obtained by diluting, as secondary antibodies, anti-rabbit IgG antibody (IRDye 800CW Goat anti-Rabbit IgG; from LI-COR Biosciences) and anti-mouse IgG antibody (IRDye 680RD Donkey anti-Mouse IgG; from LI-COR Biosciences) 1,000-fold with Can Get Signal Solution 2 was added at 15 μL per well. After allowing to stand at room temperature for 1 hour, the supernatant was removed by centrifugation and washed with PBS. After removing the supernatant, the plates were dried with air at room temperature for 2 hours or more, and the 700 nm and 800 nm fluorescent signals were measured with Aerius (from LI-COR Biosciences).
The degradation rate of RAS G12V was calculated with the RAS G12V signaling value at the time of addition of DMSO taken as 0%, which was corrected with the signaling value of β-actin, and with the RAS G12V signaling value at the time of addition of the compound of Example No. 7 at a final concentration of 3 μM taken as 100%. […]

[2] = system: human KRAS G12V mutant-positive pancreatic cancer line PA-TU-8902; test: Test Example 3: non-anchorage-dependent cell growth inhibition, spheroid 3D culture; type: cell-based; conditions: PaTu 8902, 144 h, PA-TU-8902 spheroid 3D culture, 6 days; for IC50: CellTiter Glo 2.0
Protocol: Test Example 3: Evaluation of Non-Anchorage-Dependent Cell Growth Inhibitory Effect on Human KRAS G12V Mutant-Positive Pancreatic Cancer Line PA-TU-8902
The non-anchorage-dependent cell growth inhibitory effect of test compounds was evaluated by spheroid 3D cell culture.
PA-TU-8902 cells were seeded on low-cell-adhesive round bottom 384-well plates (PrimeSurface: from Sumitomo Bakelite) at 36 µL/well to give 5×10^2 cells per well. The cell culture was performed under the same conditions as in Test Example 1.
The next day, the test compounds (8 to 10 points having final concentrations in the range of 3 μM to 0.1 nM) and DMSO, which was the solvent for the test compounds, as a negative control were diluted 100-fold with a fresh medium and were added at 4 μL per well. After culturing in the presence of 5% CO2 at 37° C. for 6 days, CellTiter Glo 2.0 (from Promega) was added at 20 μL per well. After stirring with a plate mixer (from FINEPCR) at normal temperature for 1 hour, the luminescent signals were measured with ARVO X3 (from PerkinElmer).
With the signaling value in treatment with DMSO taken as 0% inhibition and with the signaling value in the medium alone without cells taken as 100% inhibition, the 50% inhibitory concentration values (IC50) were calculated by Sigmoid-Emax nonlinear regression analysis. The inhibition rate at 30 nM was calculated for Example No. 17.

T1 sequence (P01116 1-188 isoform P01116-2 G12V): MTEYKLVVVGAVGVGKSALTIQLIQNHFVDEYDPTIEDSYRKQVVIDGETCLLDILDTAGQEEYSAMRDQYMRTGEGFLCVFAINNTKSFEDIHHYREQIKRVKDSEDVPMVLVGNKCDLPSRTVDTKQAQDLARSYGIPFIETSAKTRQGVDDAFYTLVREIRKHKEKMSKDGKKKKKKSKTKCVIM

Compound	DC50 [1] [nM]	Dmax [1] [%]	IC50 [2] [nM]	inhibition at 0.03 µM ([2]; 30 nM, CellTiter Glo 2.0, read-out: inhibition rate at 30 nM) [%]
CO[C@@H](C)COc1nc(N2CC[C@@H](N)[C@@H](F)C2)c2cc(C3CC3)c(-c3c(C)c(F)cc4[nH]ncc34)c(OCc3ccc(C(=O)N4CCN(Cc5ccc6c(c5)n(C)c(=O)n6C5CCC(=O)NC5=O)C[C@@H]4C)cc3)c2n1 (stereo partly drawn) [Example 3, 3-(5-{[(3S)-4-{4-[({4-[(3S,4R)-4-amino-3-fluoropiperidin-1-yl]-6-cyclopropyl-7-(6-fluoro-5-methyl-1H-indazol-4-yl)-2-[(2S)-2-methoxypropoxy]quinazolin-8-yl)oxy)methyl]benzoyl}-3-methylpiperazin-1-yl]methyl}-3-methyl-2-oxo-2,3-dihydro-1H-benzimidazol-1-yl)piperidine-2,6-dione]	29	74	67	–
CO[C@@H](C)COc1nc(NCc2cccnc2)c2cc(C3CC3)c(-c3c(C)c(F)cc4[nH]ncc34)c(OCc3ccc(C(=O)N4CCN(Cc5ccc6c(c5)n(C)c(=O)n6C5CCC(=O)NC5=O)C[C@@H]4C)cc3)c2n1 (stereo partly drawn) [Example 4]	7	83	74	–
Cc1c(F)cc2[nH]ncc2c1-c1c(C2CC2)cc2c(NC3CN(c4ncccn4)C3)nc(OCC(C)(C)CN(C)C)nc2c1OCc1ccc(C(=O)N2CCN(Cc3ccc4c(c3)n(C)c(=O)n4C3CCC(=O)NC3=O)C[C@@H]2C)cc1 (stereo partly drawn) [Example 8]	5	81	48	–
CO[C@@H](C)COc1cc(OC2CN(C(=O)NCCN(C)C)C2)c2cc(C3CC3)c(-c3c(C)c(F)cc4[nH]ncc34)c(OCc3ccc(C(=O)N4CCN(Cc5ccc6c(c5)n(C)c(=O)n6C5CCC(=O)NC5=O)C[C@@H]4C)cc3)c2n1 (stereo partly drawn) [Example 17]	9	70	–	50
